Measured values published in patent publication US20080108641A1, “Compounds for treating inflammatory disorders, demyelinating disdorders and cancers” (priority 2006, published 2008).
Read-outs that look alike come from different tables or passages of the source.

Legend:
[1] = tested on: Experimental Autoimmune Encephalomyelitis (EAE); test: Acute stage Experimental Autoimmune Encephalomyelitis (EAE) model, daily dosing
Description: Accordingly, three randomized cohorts of guinea pigs with EAE induced by the method of Example 2, were treated, respectively, with 6 mg/kg of Symadex™ (full salt hydrate) and 0.35 mg/kg of mitoxantrone. Animals were treated daily, by intraperitoneal injection, for 15 days, starting on day 7 post immunization. Controls were treated with vehicle. We reasoned that 15 consecutive, 6 mg/kg doses of Symadex™ would represent a level of drug exposure that would be commensurate with the “20 mg/kg every 72 hours” regimen in Example 4 and consistent with a mid level exposure between the 20 mg/kg and the 40 mg/kg schedule given weekly, in Example 2. The mitoxantrone dose was selected to reflect a typical high dose given to rats or mice by daily dosing in the prior art, but allometrically scaled to the guinea pig.

[2] = tested on: arthritis induced by monoclonal antibodies raised against type II collagen, plus LPS; test: Collagen monoclonal antibody (mABs) + LPS induced arthritis, hind paw volume; type: in vivo, BALB/c strain mice; settings: for inhibition of increase in hind paw volume: 30 mg/kg orally x3
Description: Groups of 3 BALB/c strain mice, 6-7 weeks of age, were used for the induction of arthritis by monoclonal antibodies (mABs) raised against type II collagen, plus lipopolysaccharide (LPS). A combination of 4 different mABs (D8, F10, DI-2G and A2) totaling 4 mg/mouse was administered to the animal intravenously on day 0, followed by intravenous challenge with […] of LPS 72 hours later (day 3). From day 3, test substance and vehicle were each administered orally once daily for 3 consecutive days. For each animal, volumes of both hind paws were measured using a plethysmometer with water cell (12 mm diameter) on Days 0, 5, 7, 10, 14 and 17.
C0 (Cn): volume of day 0 (day n) in vehicle control
T0 (Tn): volume of day 0 (day n) in test compound-treated group
Reduction of edema in the hind paws by 30% or more is considered significant.

IL-4 = test: Mediator release, IL-4 (Con A-stimulated PBML, sandwich ELISA); type: cell-based; settings: Homo sapiens
Description: (§1) In this experiment, test compound and/or vehicle were preincubated with human peripheral blood mononuclear leukocyte (PBML, 1×10^6/ml) in RPMI buffer pH 7.4 for 2 hours. Concanavalin A (Con A, 20 μg/ml) was then added to stimulate the cells overnight in 5% CO2 at 37° C. IL-4 and IL-10 cytokine levels in the conditioned medium were then quantified using a sandwich ELISA kit. Compounds were screened at 10, 1, 0.1, 0.01 and 0.001 μM.

[3] = tested on: T-lymphocyte cells isolated from thymus; test: Cell proliferation, T-Cell + Con A ([3H]thymidine incorporation); type: cell-based, balb/c mice; settings: Mus musculus
Description: T-lymphocyte cells isolated from thymus of balb/c mice weighing 17±1 g were used. Test compound and/or vehicle is incubated with the cells (4×10^6/ml) in the presence of 3 μg/mL Concanavalin A (Con A) in AIM-V medium pH 7.4 at 37° C. for 24 hours. [^3H]Thymidine (120 nM) was then added for an additional overnight incubation period. Thymidine incorporation was assessed by liquid scintillation counting. Compounds were screened at 10, 1, 0.1, 0.01 and 0.001 μM.
(§2) Test compound-induced suppression of cell proliferation by 50 percent or more (≧50%) relative to vehicle control response indicates significant inhibitory activity.

[4] = tested on: B-lymphocyte cells isolated from the spleen; test: Cell proliferation, B-Cell + LPS ([3H]thymidine incorporation); type: cell-based, balb/c mice; settings: Mus musculus
Description: B-lymphocyte cells isolated from the spleen of balb/c mice weighing 17±1 g were used. Test compound and/or vehicle were incubated with the cells (1.5×10^6/ml) in the presence of 10 μg/ml lipopolysaccharide (LPS) in AIM-V medium pH 7.4 at 37° C. for 24 hours. [^3H]Thymidine (120 nM) was then added for an additional overnight incubation period. Thymidine incorporation was assessed by liquid scintillation counting.
as §2

[5] = tested on: Experimental Autoimmune Encephalomyelitis (EAE); settings: for mean clinical severity score: 20 mg/kg i.p. once a week
IL-10 = test: Mediator release, IL-10 (Con A-stimulated PBML, sandwich ELISA); type: cell-based; settings: Homo sapiens
Description: as §1

[6] = human dose of 540 mg/m^2 body surface area (as free base); cited from earlier work
[7] = 20 mg/kg i.p. weekly for 4, 6 and 8 weeks

For CCN(CC)CCNc1ccc2ncn3c4ccc(O)cc4c(=O)c1c23 [Symadex™], which “clinical score course (neurological impairment)” value ([1]; daily i.p. for 15 days from day 7 post immunization, Symadex 6 mg/kg, mitoxantrone 0.35 mg/kg) is on record?
Its value is “initial rise in neurological impairment is arrested”.

What about the “statistical significance of therapeutic effect on clinical score vs control (Mann-Whitney rank-sum)” value ([1]; daily i.p. for 15 days, Symadex 6 mg/kg (p below 0.05), mitoxantrone 0.35 mg/kg) of the same molecule?
Its value is “reaches statistical significance”.

And the “pathology scores: perivascular cuffing (P), myelitis (E) and demyelination (D) vs control” value ([1]; necropsy after 15 daily doses, p value<0.05 from control)?
Its value is “reducing the perivascular cuffing (P), myelitis (E) and demyelination (D)”.

And the “increase in hind paw volume” value ([2]; day 5, 3 consecutive daily oral doses at 30 mg/kg from day 3, vehicle 42%)?
Its value is 32%.

And the “inhibition of increase in hind paw volume” value (shortened to “inhibition of increase”) ([2]; day 10)?
Its value is 61%.

What about the “increase in hind paw volume” value ([2]; day 10, 3 consecutive daily oral doses at 30 mg/kg, vehicle 75%) of the same molecule?
The value was 29%.

What about the “inhibition of increase” value ([2]; day 14) of the same molecule?
The value was 74%.

What about the “increase in hind paw volume” value ([2]; day 14, 3 consecutive daily oral doses at 30 mg/kg, vehicle 70%) of the same molecule?
The value was 18%.

And the “inhibition of increase” value ([2]; day 17)?
Its value is 59%.

And the “increase in hind paw volume” value ([2]; day 17, 3 consecutive daily oral doses at 30 mg/kg, vehicle 47%)?
The value was 19%.

What about the inhibition at 0.001 µM (IL-4; 1 nM, read-out: % Growth Inhibition) of the same molecule?
Its inhibition at 0.001 µM is 8%.

And the inhibition at 0.01 µM (IL-4; 10 nM, read-out: % Growth Inhibition)?
The inhibition at 0.01 µM was 7%.

What about the inhibition at 0.1 µM (IL-4; 0.1 μM, read-out: % Growth Inhibition) of the same molecule?
The inhibition at 0.1 µM was 2%.

And the inhibition at 1 µM (IL-4; 1 μM, read-out: % Growth Inhibition)?
Its inhibition at 1 µM is -9%.

What about the inhibition at 10 µM (IL-4; 10 μM, read-out: % Growth Inhibition) of the same molecule?
The inhibition at 10 µM was 105%.

What about the IC50 (IL-4; IL-4 release) of the same molecule?
Its IC50 is 3330 nM.

What about the IC50 [3] of the same molecule?
Its IC50 is 14 nM.

What about the inhibition at 0.001 µM ([3]; read-out: % Growth Inhibition) of the same molecule?
The inhibition at 0.001 µM was 10%.

What about the inhibition at 0.01 µM ([3]; read-out: % Growth Inhibition) of the same molecule?
Its inhibition at 0.01 µM is 44%.

What about the inhibition at 0.1 µM ([3]; read-out: % Growth Inhibition) of the same molecule?
The inhibition at 0.1 µM was 82%.

What about the inhibition at 1 µM ([3]; read-out: % Growth Inhibition) of the same molecule?
The inhibition at 1 µM was 103%.

What about the inhibition at 10 µM ([3]; read-out: % Growth Inhibition) of the same molecule?
The inhibition at 10 µM was 104%.

And the IC50 [4]?
The IC50 was 38 nM.

What about the inhibition at 0.001 µM ([4]; read-out: % Growth Inhibition) of the same molecule?
Its inhibition at 0.001 µM is 0%.

What about the inhibition at 0.01 µM ([4]; read-out: % Growth Inhibition) of the same molecule?
Its inhibition at 0.01 µM is 38%.

And the inhibition at 0.1 µM ([4]; read-out: % Growth Inhibition)?
Its inhibition at 0.1 µM is 80%.

And the inhibition at 1 µM ([4]; read-out: % Growth Inhibition)?
Its inhibition at 1 µM is 101%.

What about the inhibition at 10 µM ([4]; read-out: % Growth Inhibition) of the same molecule?
Its inhibition at 10 µM is 103%.

And the “mean clinical severity score” value ([5]; 4-week treatment cycle (n=14), starting mean 1.3, p 0.0001 vs control)?
Its value is 0.7.

And the “mean clinical severity score” value ([5]; 6 week treatment (n=3), control 1.3, p 0.009)?
Its value is 0.3.

And the “B-cell counts vs controls” value [5, 7]?
The value was “no significant deviation from controls”.

What about the “CD4 and CD8 T-cell populations” value [5, 7] of the same molecule?
The value was “Neither are CD4 or CD8 T-cell populations modulated”.

What about the “total T-cell counts vs vehicle control” value [5, 7] of the same molecule?
The value was “no difference”.

And the “disease course after drug withdrawal” value ([5]; 20 mg/kg i.p. weekly for 4 weeks, then 4 weeks vehicle, p 0.002 vs control)?
Its value is “remained in stable disease”.

What about the “clinical scores / disease progression” value ([5]; 20 mg/kg i.p., 2 doses 72 hours apart, from 30 days post immunization (n=3), p 0.002 vs control) of the same molecule?
The value was “reversed the progression of disease and restored baseline clinical scores”.

And the “clinical scores at end of treatment course” value ([5]; 20 mg/kg i.p., 8 consecutive weekly doses (n=3), p 0.0006 vs control)?
Its value is “converges on baseline”.

And the “time to clinical recovery from the start of treatment” value ([5]; 40 mg/kg i.p. once a week for 4 weeks)?
Its value is ≤ 2 weeks.

What about the “clinical progress and pathological findings vs vehicle control” value ([5]; 20 and 40 mg/kg i.p. once a week for 4 weeks from day 40, p 0.004 (20 mg/kg), 0.001 (40 mg/kg)) of the same molecule?
The value was “profound and substantial change”.

What about the “inflammatory cells in chronic demyelinated plaques” value ([5]; after prolonged treatment) of the same molecule?
The value was “virtually no remaining inflammatory cells”.

What about the endogenous remyelination ([5]; chronic-progressive model, after disease progression) of the same molecule?
The endogenous remyelination was “effective in permitting endogenous remyelination”.

And the “scores for meningeal inflammation and perivascular infiltration” value ([5]; treated groups vs vehicle controls, weekly dosing for 4 weeks)?
Its value is “more severe in the treated groups than in vehicle controls”.

What about the inhibition at 0.001 µM (IL-10; read-out: % inhibition of IL-10 release, 1 nM, read-out: % Growth Inhibition) of the same molecule?
Its inhibition at 0.001 µM is 1%.

What about the inhibition at 0.01 µM (IL-10; read-out: % inhibition of IL-10 release, 10 nM, read-out: % Growth Inhibition) of the same molecule?
Its inhibition at 0.01 µM is 16%.

And the inhibition at 0.1 µM (IL-10; read-out: % inhibition of IL-10 release, 0.1 μM, read-out: % Growth Inhibition)?
Its inhibition at 0.1 µM is 16%.

What about the inhibition at 1 µM (IL-10; read-out: % inhibition of IL-10 release, 1 μM, read-out: % Growth Inhibition) of the same molecule?
Its inhibition at 1 µM is 39%.

What about the inhibition at 10 µM (IL-10; read-out: % inhibition of IL-10 release, 10 μM, read-out: % Growth Inhibition) of the same molecule?
The inhibition at 10 µM was 99%.

What about the IC50 (IL-10; IL-10 release) of the same molecule?
Its IC50 is 1200 nM.

What about the “tolerability of single dose” value [6] of the same molecule?
Its value is “safe and well-tolerated”.
